The results in this text go back to patent US12065430B2, “Indazole compound or salt thereof” (TAIHO PHARMACEUTICAL CO., LTD., priority 2018, dated 2024).

By IC50 is commonly meant the concentration at which inhibition is half-maximal.

Test [1] addresses G12C K-Ras4B (1-169) (Homo sapiens (Human), UniProt P01116, G12C). In words: Test of compounds on whether to bind to KRASG12C (LC-MS compound binding rate). The conditions noted are these: final compound concentration of 2 μM, 1 μM protein, 25° C. for 2 hours. A digest of the protocol: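 K-Ras4B (1-169) WT and G12C (1 μM each, mixed) in 1×TBS, 0.1 mM TCEP incubated with compound (final 2 μM) 2 h at 25° C; quenched with 0.2% formic acid. Intact-protein LC-MS (ESI+, deconvoluted); binding rate = adduct signal/(adduct + unbound signal), giving selectivity over WT.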

Test [2] has as its system NCI-H358 cells. The test can be described thus: Growth inhibition activity on KRAS-G12C mutant cell line (NCI-H358) (in vitro, CellTiter-Glo2.0). The test is classed as cell-based. The conditions noted are these: Homo sapiens, NCI-H358, 72 h, 3-day culture in the presence of the compound. How it is done:
NCI-H358 cells (ATCC, Cat #: CRL-5807), which are a KRAS-G12C mutant human lung cancer cell line, were suspended in a 10% fetal bovine serum-containing RPMI1640 medium (manufactured by Fujifilm Wako Pure Chemical Corporation.). The cell suspension was seeded into each well of a 384-well flat-bottom microplate and cultured in an incubator containing 5% CO2 gas at 37° C. for 1 day. The test compound was dissolved in DMSO, and diluted with DMSO to give a concentration 500 times the final concentration. The solution of the test compound in DMSO was diluted with the medium used for suspending cells and added to each well of the cell-culture plate to give a DMSO final concentration of 0.2%, followed by culture in an incubator containing 5% CO2 gas at 37° C. for another 3 days. The cell count after 3-day culture in the presence of the compound was measured using CellTiter-Glo2.0 (manufactured by Promega Corporation) in accordance with the protocol recommended by Promega Corporation. The growth inhibition rate was calculated from the following equation, and the concentration of the test compound at which 50% inhibition was achieved (IC50 (nM)) was determined. […] Growth Inhibition Rate (%)=(C−T)/(C)×100 • T: the emission intensity in a well into which a test compound was added. • C: the emission intensity in a well into which a test compound was not added.

G12C K-Ras4B (1-169), sequence (P01116 other isoform, or with tags, fused parts or gaps G12C): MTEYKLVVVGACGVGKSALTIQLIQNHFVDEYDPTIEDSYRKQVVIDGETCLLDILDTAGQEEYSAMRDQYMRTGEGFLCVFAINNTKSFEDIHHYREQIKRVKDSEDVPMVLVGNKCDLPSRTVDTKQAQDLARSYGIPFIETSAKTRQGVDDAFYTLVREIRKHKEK

On to `C=CC(=O)N1CC(NC(=O)c2c(Cl)nc(CNc3n[nH]c4cc(Cl)c(C(C)(C)C)cc34)n2C(C)C)C1` [Example 35, N-(1-acryloylazetidin-3-yl)-2-(((5-(tert-butyl)-6-chloro-1H-indazol-3-yl)amino)methyl)-4-chloro-1-isopropyl-1H-imidazole-5-carboxamide], for which the “binding rate for G12C K-Ras4B (1-169)” value in test [1] is “B (a binding rate of 60% or more and less than 80% is rated “B,”)”. In addition, the IC50 in test [2] amounted to 67 nM.

As to `C=CC(=O)N1C[C@H](NC(=O)c2c(C)nc(CNc3n[nH]c4cc(Cl)c(C(C)(C)C)cc34)n2C)[C@@H](F)C1` [Example 64, N-((3S,4S)-1-acryloyl-4-fluoropyrrolidin-3-yl)-2-(((5-(tert-butyl)-6-chloro-1H-indazol-3-yl)amino)methyl)-1,4-dimethyl-1H-imidazole-5-carboxamide], in test [1], the “binding rate for G12C K-Ras4B (1-169)” value is reported as “A (a binding rate of 80% or more is rated “A,”)”. In test [2], the IC50 is 241 nM.

Consider `C=CC(=O)N1C[C@H](NC(=O)c2c(F)nc(CNc3n[nH]c4cc(Cl)c(C(C)(C)C)cc34)n2C)[C@@H](F)C1` [Example 75, N-((3S,4S)-1-acryloyl-4-fluoropyrrolidin-3-yl)-2-(((5-(tert-butyl)-6-chloro-1H-indazol-3-yl)amino)methyl)-4-fluoro-1-methyl-1H-imidazole-5-carboxamide], for which, in test [1], the “binding rate for G12C K-Ras4B (1-169)” value is listed as “A (a binding rate of 80% or more is rated “A,”)”. Further, the IC50 in test [2] came to 142 nM.

Consider `C=CC(=O)N1C[C@H](NC(=O)c2c(Cl)nc(CNc3n[nH]c4cc(Cl)c(C(C)(C)C)cc34)n2C)[C@@H](F)C1` [Example 76, N-((3S,4S)-1-acryloyl-4-fluoropyrrolidin-3-yl)-2-(((5-(tert-butyl)-6-chloro-1H-indazol-3-yl)amino)methyl)-4-chloro-1-methyl-1H-imidazole-5-carboxamide], for which, in test [1], the “binding rate for G12C K-Ras4B (1-169)” value is on record as “A (a binding rate of 80% or more is rated “A,”)”. In addition, the IC50 in test [2] turned out to be 232 nM.

For the compound `C=CC(=O)N1C[C@@H](C)[C@@H](NC(=O)c2c(Cl)nc(CNc3n[nH]c4cc(Cl)c(C(C)(C)C)cc34)n2C)C1` [Example 78, N-((3R,4R)-1-acryloyl-4-methylpyrrolidin-3-yl)-2-(((5-(tert-butyl)-6-chloro-1H-indazol-3-yl)amino)methyl)-4-chloro-1-methyl-1H-imidazole-5-carboxamide], the “binding rate for G12C K-Ras4B (1-169)” value in test [1] is “B (a binding rate of 60% or more and less than 80% is rated “B,”)”. In addition, the IC50 in test [2] amounted to 350 nM.

For `C=CC(=O)N1CC(NC(=O)c2c(C(F)F)nc(CNc3n[nH]c4cc(Cl)c(C(C)(C)C)cc34)n2C2CCN(C(C)C)C2)C1.O=CO` (stereo not shown) [Example 93, N-(1-acryloylazetidin-3-yl)-2-(((5-(tert-butyl)-6-chloro-1H-indazol-3-yl)amino)methyl)-4-(difluoromethyl)-1-(1-isopropylpyrrolidin-3-yl)-1H-imidazole-5-carboxamide formate], the “binding rate for G12C K-Ras4B (1-169)” value in test [1] is “A (a binding rate of 80% or more is rated “A,”)”. The IC50 in test [2] turned out to be 40 nM.

On to `C=CC(=O)N1CC(NC(=O)c2c(Cl)nc(CNc3n[nH]c4cc(Cl)c(C(C)(C)C)cc34)n2[C@H]2CCOC2)C1` [Example 97, (S)—N-(1-acryloylazetidin-3-yl)-2-(((5-(tert-butyl)-6-chloro-1H-indazol-3-yl)amino)methyl)-4-chloro-1-(tetrahydrofuran-3-yl)-1H-imidazole-5-carboxamide], for which the “binding rate for G12C K-Ras4B (1-169)” value in test [1] was “A (a binding rate of 80% or more is rated “A,”)”. In test [2], the concentration for half-maximal inhibition (IC50) amounted to 52 nM.

For the compound `C=CC(=O)N1CC(NC(=O)c2c(Cl)nc(CNc3n[nH]c4cc(Cl)c(C(C)(C)C)cc34)n2C2CCOCC2)C1` [Example 101, N-(1-acryloylazetidin-3-yl)-2-(((5-(tert-butyl)-6-chloro-1H-indazol-3-yl)amino)methyl)-4-chloro-1-(tetrahydro-2H-pyran-4-yl)-1H-imidazole-5-carboxamide], the “binding rate for G12C K-Ras4B (1-169)” value in test [1] is reported as “A (a binding rate of 80% or more is rated “A,”)”. The IC50 in test [2] is 54 nM.
